Where “and” joins values, the source holds several entries; their conditions need not be identical. Identical values can stand only once. Marks after values point to notes of the source that are not given here. Non-standard residues stand in square brackets, D forms with d. Residues, ends and D or L forms follow the SMILES beside them. *: point of attachment. Asu = N[C@@H](CCCCCC(=O)O)C(=O)O; NHOH = ON*
What was measured:
[1] = target: T1, HDAC1 (Homo sapiens, UniProt Q13547); test: Recombinant HDAC µSPOT microarray binding assay;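 further: slides with spotted peptides incubated with six HDAC concentrations in HEPES buffer pH 7.4, spot intensities fitted by four-parameter logistic, EC50 as enzyme concentration giving half-maximal binding signal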
T1 construct: HDAC1 (full length, C-terminal His tag, C-terminal FLAG tag, BPS Bioscience, cat. #: 50051); FLAG (C); purchased BPS Bioscience 50051
T1 sequence (Q13547 whole entry): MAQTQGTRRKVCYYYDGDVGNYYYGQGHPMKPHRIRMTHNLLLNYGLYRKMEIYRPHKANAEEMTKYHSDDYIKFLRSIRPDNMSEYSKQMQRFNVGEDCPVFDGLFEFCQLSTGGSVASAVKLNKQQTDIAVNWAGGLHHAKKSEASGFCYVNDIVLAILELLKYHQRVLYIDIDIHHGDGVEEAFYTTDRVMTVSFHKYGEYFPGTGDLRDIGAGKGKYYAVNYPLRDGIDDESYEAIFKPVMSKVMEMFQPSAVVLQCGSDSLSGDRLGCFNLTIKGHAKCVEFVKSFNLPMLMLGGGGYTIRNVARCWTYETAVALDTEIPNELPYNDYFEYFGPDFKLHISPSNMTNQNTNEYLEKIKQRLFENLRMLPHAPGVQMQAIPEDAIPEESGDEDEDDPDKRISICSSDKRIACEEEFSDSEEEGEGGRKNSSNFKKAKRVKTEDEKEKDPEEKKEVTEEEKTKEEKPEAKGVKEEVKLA

[2] = target: T2, HDAC2 (Homo sapiens, UniProt Q92769); test: Recombinant HDAC µSPOT microarray binding assay;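 further: Cellulose-bound peptide spots on slides incubated with six HDAC enzyme concentrations, binding intensity read, four-parameter variable-slope fit, EC50 is enzyme concentration giving half-maximal binding, in HEPES buffer pH 7.4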
T2 construct: HDAC2 (full length, C-terminal His tag, BPS Bioscience, cat. #: 50002); purchased BPS Bioscience 50002
T2 sequence (Q92769 whole entry): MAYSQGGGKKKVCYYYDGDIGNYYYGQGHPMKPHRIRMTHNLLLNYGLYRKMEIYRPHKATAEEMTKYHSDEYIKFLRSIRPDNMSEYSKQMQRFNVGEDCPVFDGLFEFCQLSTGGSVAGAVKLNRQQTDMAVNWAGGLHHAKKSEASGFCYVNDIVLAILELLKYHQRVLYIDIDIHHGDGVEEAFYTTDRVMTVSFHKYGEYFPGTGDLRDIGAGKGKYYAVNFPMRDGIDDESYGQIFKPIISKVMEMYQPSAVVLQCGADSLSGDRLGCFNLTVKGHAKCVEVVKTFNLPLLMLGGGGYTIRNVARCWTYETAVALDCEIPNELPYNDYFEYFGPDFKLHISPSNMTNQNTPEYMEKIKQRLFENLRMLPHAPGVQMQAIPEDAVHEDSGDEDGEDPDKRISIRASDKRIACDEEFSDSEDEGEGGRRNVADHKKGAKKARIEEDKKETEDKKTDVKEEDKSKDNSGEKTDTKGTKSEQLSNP

[3] = target: T3, HDAC3/NCoR2 (Homo sapiens, UniProt O15379); test: Recombinant HDAC µSPOT microarray binding assay;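 further: peptide spots on cellulose slides incubated with rising HDAC enzyme concentrations, imaged together, four-parameter logistic fit, EC50 is enzyme concentration giving half-maximal binding signal, two experiments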
T3 construct: HDAC3/NCoR2 (full length, C-terminal His tag, NCoR2 N-terminal GST tag); purchased BPS Bioscience 50003
T3 sequence (O15379 whole entry): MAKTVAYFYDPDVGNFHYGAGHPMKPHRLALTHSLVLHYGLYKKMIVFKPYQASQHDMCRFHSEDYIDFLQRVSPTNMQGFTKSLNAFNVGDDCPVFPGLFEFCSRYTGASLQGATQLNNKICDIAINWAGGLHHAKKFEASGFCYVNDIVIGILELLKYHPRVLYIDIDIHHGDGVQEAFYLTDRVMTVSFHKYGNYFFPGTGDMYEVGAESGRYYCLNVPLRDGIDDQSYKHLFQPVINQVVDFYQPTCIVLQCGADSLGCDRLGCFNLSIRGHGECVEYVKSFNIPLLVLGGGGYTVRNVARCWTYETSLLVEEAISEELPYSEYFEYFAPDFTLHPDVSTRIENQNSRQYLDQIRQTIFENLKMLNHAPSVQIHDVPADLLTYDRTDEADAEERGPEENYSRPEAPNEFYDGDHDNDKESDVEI
T3 sequence (Q9Y618 389-480 partner limits assumed): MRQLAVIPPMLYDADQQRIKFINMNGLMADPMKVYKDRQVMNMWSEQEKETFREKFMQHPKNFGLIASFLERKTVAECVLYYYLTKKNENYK

[4] = target: T4, HDAC8 (Homo sapiens, UniProt Q9BY41); test: Recombinant HDAC µSPOT microarray binding assay;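 further: peptide µSPOT slides incubated with varying HDAC enzyme concentrations, imaged signal intensity fitted by four-parameter variable-slope regression, EC50 is enzyme concentration giving half-maximal binding, pH 7.4 HEPES buffer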
T4 construct: HDAC8 (full length, C-terminal His tag, BPS Bioscience, cat. #: 50008); purchased BPS Bioscience 50008
T4 sequence (Q9BY41 1-377): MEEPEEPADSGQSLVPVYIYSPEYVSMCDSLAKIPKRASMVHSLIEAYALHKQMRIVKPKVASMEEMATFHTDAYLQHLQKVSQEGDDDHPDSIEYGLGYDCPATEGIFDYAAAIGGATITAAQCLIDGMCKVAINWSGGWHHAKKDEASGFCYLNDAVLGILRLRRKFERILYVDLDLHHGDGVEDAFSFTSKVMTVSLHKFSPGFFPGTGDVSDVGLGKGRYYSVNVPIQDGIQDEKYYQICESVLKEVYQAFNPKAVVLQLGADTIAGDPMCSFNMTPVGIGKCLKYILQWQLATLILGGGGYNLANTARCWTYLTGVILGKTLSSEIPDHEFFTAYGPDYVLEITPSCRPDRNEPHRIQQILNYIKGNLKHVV
Protocol: Experiments were performed twice, data were obtained with Array Analyze software (Active Motif), and data analysis and representation were performed with the GraphPad Prism 7 software. Outliers were curated manually and data were fitted to nonlinear regression [log(agonist) vs. response—variable slope (four parameters)]. […] Non-sigmoidal curves were denoted as not determined (N.D.) The pEC50 values were determined as the concentration of HDAC enzyme required for half-maximal binding signal.

[5] = target: T1, HDAC1; test: HDAC inhibition assay (fluorogenic, Ac-Leu-Gly-Lys(Ac)-AMC); type: biochemical; conditions: for HDAC1 dose-response data (relative enzyme activity), Fig. 6 + S. Fig. 10: duplicate columns
[6] = target: T2, HDAC2; test: as above; type: biochemical; conditions: for HDAC2 dose-response data (relative enzyme activity), Fig. 6 + S. Fig. 10: duplicate columns
[7] = target: T3, HDAC3/NCoR2; test: as above; type: biochemical; conditions: for HDAC3 dose-response data (relative enzyme activity), Fig. 6 + S. Fig. 10: duplicate columns
[8] = log[inhibitor(M)] -10,5850266520292*, whole line marked with asterisks

SMILES: CC[C@H](C)[C@H](NC(=O)[C@@H](NC(=O)[C@H](CO)NC(=O)[C@H](CCCNC(=N)N)NC(=O)[C@H](CCCCCC(=O)NO)NC(=O)[C@H](CC(N)=O)NC(=O)[C@H](Cc1ccc(O)cc1)NC(=O)[C@H](Cc1c[nH]cn1)NC(=O)[C@H](C)NC(=O)[C@H](CC(C)C)NC(=O)[C@H](CCCNC(=N)N)NC(=O)[C@H](CO)NC(=O)[C@H](C)NC(=O)[C@H](CCC(=O)O)NC(C)=O)[C@@H](C)O)C(=O)N[C@H](C(=O)N[C@@H](CO)C(=O)N[C@@H](Cc1c[nH]c2ccccc12)C(N)=O)[C@@H](C)O [11a] (Ac-EASRLAHYN[Asu](NHOH)RSTITSW-NH2)
- EC50 [1]: > 0.0251 µM
- EC50 [2]: > 0.0251 µM
- EC50 [3]: 0.00282 µM
- EC50 [4]: > 0.0251 µM
- Ki [5]: 0.0131 ± 0.0001 µM
- HDAC1 dose-response data (relative enzyme activity), Fig. 6 + S. Fig. 10 ([5]; log[inhibitor(M)] -5.69897): 4.17 and 5.0607
- HDAC1 dose-response data (relative enzyme activity), Fig. 6 + S. Fig. 10 ([5]; log[inhibitor(M)] -6.39794): 14.283 and 18.2541
- HDAC1 dose-response data (relative enzyme activity), Fig. 6 + S. Fig. 10 ([5]; log[inhibitor(M)] -7.09691): 37.8888 and 46.2715
- HDAC1 dose-response data (relative enzyme activity), Fig. 6 + S. Fig. 10 ([5]; log[inhibitor(M)] -7.79588): 70.7486 and 79.6987
- HDAC1 dose-response data (relative enzyme activity), Fig. 6 + S. Fig. 10 ([5]; log[inhibitor(M)] -8.49485): 87.0411 and 94.7749
- HDAC1 dose-response data (relative enzyme activity), Fig. 6 + S. Fig. 10 ([5]; log[inhibitor(M)] -9.19382): 97.6689 and 100.068
- HDAC1 dose-response data (relative enzyme activity), Fig. 6 + S. Fig. 10 ([5]; log[inhibitor(M)] -9.89279): 97.248 and 100.059
- HDAC1 dose-response data (relative enzyme activity), Fig. 6 + S. Fig. 10 [5, 8]: 97,6864843* and 100,018018*
- HDAC2 dose-response data (relative enzyme activity), Fig. 6 + S. Fig. 10 ([6]; log[inhibitor(M)] -5): 1.895 and 2.051
- HDAC2 dose-response data (relative enzyme activity), Fig. 6 + S. Fig. 10 ([6]; log[inhibitor(M)] -5.69897): 7.362 and 7.275
- HDAC2 dose-response data (relative enzyme activity), Fig. 6 + S. Fig. 10 ([6]; log[inhibitor(M)] -7.79588): 79.8909 and 86.975
- HDAC2 dose-response data (relative enzyme activity), Fig. 6 + S. Fig. 10 [6, 8]: 93,4642959* and 101,701404*
- Ki ([6]; resynthesized peptide in solution, Cheng-Prusoff, n = 2): 0.0138 ± 0.0001 µM
- Ki [7]: 0.00345 ± 2e-05 µM
- HDAC3 dose-response data (relative enzyme activity), Fig. 6 + S. Fig. 10 ([7]; log[inhibitor(M)] -4.30103): 0.8032 and 0.6973
- HDAC3 dose-response data (relative enzyme activity), Fig. 6 + S. Fig. 10 ([7]; log[inhibitor(M)] -5): 0.9208 and 1.031
- HDAC3 dose-response data (relative enzyme activity), Fig. 6 + S. Fig. 10 ([7]; log[inhibitor(M)] -5.69897): 3.115 and 3.491
- HDAC3 dose-response data (relative enzyme activity), Fig. 6 + S. Fig. 10 ([7]; log[inhibitor(M)] -6.39794): 8.97 and 10.4813
- HDAC3 dose-response data (relative enzyme activity), Fig. 6 + S. Fig. 10 ([7]; log[inhibitor(M)] -7.09691): 21.4302 and 25.3963
- HDAC3 dose-response data (relative enzyme activity), Fig. 6 + S. Fig. 10 ([7]; log[inhibitor(M)] -7.79588): 44.8111 and 52.4153
- HDAC3 dose-response data (relative enzyme activity), Fig. 6 + S. Fig. 10 ([7]; log[inhibitor(M)] -8.49485): 70.9236 and 81.6314
